Measured values as given in patent publication US20230233488A1, “NOVEL USE OF A MODULATOR OF GLUCOSYLCERAMIDE DEGRADATION FOR VIRAL INFECTIONS” (SPEDDING RESEARCH SOLUTIONS, SAS, priority 2020, published 2023).

Experiments:
A549-ACE2 cells = assay: Cytotoxicity in A549-ACE2 cells (AlamarBlue); conditions: 48 h incubation, 10^−8 to 5.10^−5 M
Huh7 cells = assay: Cytotoxicity in Huh7 cells (AlamarBlue); assay type: cell-based, human; conditions: 0.391 to 200 μM
SARS-CoV-2 = assay: Antiviral activity against SARS-CoV-2 in A549-ACE2 cells (supernatant viral load by RT-qPCR); conditions: for antiviral effect on SARS-CoV-2 replication / viral load: 10^−8 to 5.10^−5 M, 48 h, hydrochloride
[1] = system: dengue virus serotype 2—strain 16681 (DENV2); assay: DENV2 infection of Huh7 cells, infectious virus release in supernatants (plaque assay on BHK cells); assay type: cell-based
Description: • 2.1 Material and methods Huh7, human hepatoma cells were used for all primary experiments. For all siRNA experiments, cells were seeded in 24-well plates at a concentration of 2×10^5 cells/well in DMEM and 10% FBS. […] During siRNA and drug treatment the media was removed and replaced with DMEM and 2% FBS and a corresponding concentration of siRNA or ambroxol. During viral infection, all media is removed and set aside, and a viral inoculum is added to the cells. The cells and viral inoculum are incubated for 1 hr at room temperature on a rocker. The virus is then aspirated from cells, cells are washed with 1Xphosphate buffer saline (PBS), the media is re-added to the cells, and cells are incubated at 37° C. and 5% CO2 for 24 h. […] Plaque assay analysis of infectious virus release from supernatants was conducted on baby hamster kidney cells (BHK cells). BHK cells are maintained in MEM with 10% FBS. For plaque assays, BHKs are seeded in 6 well plates at a density of […] cells/well. The following day, dilutions of viral supernatants collected from samples are applied to BHK cells, followed by a 1 hr incubation at room temperature, and then cells are overlaid with MEM containing 5% FBS and 2% agarose. Plaques are counted at 6 days post infection. For qRT-PCR analysis, cells are collected post infection in TRIzol reagent (Invitrogen), and RNA is extracted per manufacturer's protocol. A one-step qRT-PCR kit from Agilent (Brilliant III Ultra Fast SYBR Green qRT-PCR Kit) is used to assess viral genome copies. A standard curve of viral RNA is generated using a viral RNA from a cDNA subclone of DENV2 as described in Gullberg RC, et al. 2018. Copies of viral RNA are normalized to the ribosomal protein lateral stalk protein subunit PO (RPLPO) gene using the delta delta Cq method also described in Gullberg RC et al. 2018 (cited above).
Huh7 cells were treated with siRNA targeting glucosylceramidase beta 1 (GBA1) and infected with dengue virus serotype 2—strain 16681 (DENV2) with a multiplicity of infection or MOI=0.3) according to known techniques (Gullberg RC et al. 2018 cited above). After 24 hours post infection (hpi), supernatants were collected and analyzed via plaque assay on baby hamster kidney cells (BHK cells) for infectious virus release.
Huh7 cells were pre-treated with Ambroxol hydrochloride at 0.391, 0.781, 1.56, 3.125, 6.25, 12.5, 25, 50, 100, and 200 μM for 24 h, followed by DENV2 infection with MOI=0.1; or MOI=5). 24 hours post infection, supernatants were collected and analyzed via plaque assay on BHK cells.
Huh7 cells were treated with siRNAs targeting GBA1 and glucosylceramidase beta 2 (GBA2) enzymes followed by DENV2 infection with MOI=0.1; or MOI=5). 24 hpi, supernatants were collected and analyzed via plaque assay on BHK cells while RNA was extracted from cells and analyzed via qRT-PCR for DENV2 genome replication. Results

With `Cl.Nc1c(Br)cc(Br)cc1CN[C@H]1CC[C@H](O)CC1` [Ambroxol, trans-4-(2-Amino-3,5-dibromobenzylamino) cyclohexanol hydrochloride] the “cell viability (cytotoxicity)” value (A549-ACE2 cells) was “no toxic effects on cell viability”, the “cytopathic effect on cells” value (Huh7 cells) was “only the highest concentrations (100 μM and 200 μM) having any cytopathic effect” and the “antiviral effect on SARS-CoV-2 replication / viral load” value (SARS-CoV-2) was “significant concentration-dependent antiviral effect”. For the same compound, the “antiviral effect on SARS-CoV-2 replication / viral load” value (SARS-CoV-2; listed as ambroxol) was “concentration-dependent effect reducing SARS-CoV-2 viral load”, the “maximal antiviral effect compared with remdesivir” value (SARS-CoV-2; dose-response of FIG. 1C) was “equivalent to that of remdesivir” and the IC50 (SARS-CoV-2; read-out: 50% effective concentration (IC50), SARS-CoV-2 supernatant viral load, MOI 0.1, 48 h post infection, hydrochloride) was 22 µM. The “potency against Dengue virus relative to SARS-CoV-2” value ([1]; Dengue versus SARS-CoV-2) was 10 fold, the IC50 ([1]; Dengue virus, DENV2, MOI 0.1, read-out: IC50 against Dengue virus) was 0.86 µM and the “concentration above which no detectable virus was released from cells” value ([1]; MOI=0.1, Huh7 cells, 24 h post infection) was “above 6.25 μM”. For the same compound, the “DENV2 release from Huh7 cells, low MOI” value ([1]; MOI=0.1, all concentrations tested (0.391 to 200 μM), 24 h pre-treatment, 24 h post infection) was “statistically significant reduction of DENV2 release”, the “concentration giving a statistically significant reduction of DENV2 release” value ([1]; MOI=5, Huh7 cells, 24 h post infection) was no less than 12.5 µM and the “DENV2 release from Huh7 cells, high MOI” value ([1]; MOI=5, all concentrations tested (0.391 to 200 μM), 24 h post infection) was “reduced DENV2 release”.
